Starred links: 1 amine or outer side, 2 acyl side, 3 side chain; linkers in the order of their positions; H or OH if unused. Positions of bridges follow the written chain, without caps; N, C: chain ends. Residues, ends and D or L forms follow the SMILES beside them. Groups on a side chain read outwards from the residue. *: point of attachment. C18 diacid = O=C(O)CCCCCCCCCCCCCCCCC(=O)*; γGlu = O=C(O)[C@H](CCC(=O)[*:2])N[*:1]; AEEA = NCCOCCOCC(=O)O

From US8741836B2, “Polypeptides” (Novo Nordisk A/S, priority 2011, dated 2014) come the findings set out here.

Series [1] addresses T1, rat calcitonin (a) receptor (Rattus norvegicus, UniProt P32214).
T1 construct: expressed in transfected cells; host or cells: BHK tk'ts 13 (transient, FuGENE 6)
T1 sequence (P32214 25-479 isoform P32214-2 limits assumed): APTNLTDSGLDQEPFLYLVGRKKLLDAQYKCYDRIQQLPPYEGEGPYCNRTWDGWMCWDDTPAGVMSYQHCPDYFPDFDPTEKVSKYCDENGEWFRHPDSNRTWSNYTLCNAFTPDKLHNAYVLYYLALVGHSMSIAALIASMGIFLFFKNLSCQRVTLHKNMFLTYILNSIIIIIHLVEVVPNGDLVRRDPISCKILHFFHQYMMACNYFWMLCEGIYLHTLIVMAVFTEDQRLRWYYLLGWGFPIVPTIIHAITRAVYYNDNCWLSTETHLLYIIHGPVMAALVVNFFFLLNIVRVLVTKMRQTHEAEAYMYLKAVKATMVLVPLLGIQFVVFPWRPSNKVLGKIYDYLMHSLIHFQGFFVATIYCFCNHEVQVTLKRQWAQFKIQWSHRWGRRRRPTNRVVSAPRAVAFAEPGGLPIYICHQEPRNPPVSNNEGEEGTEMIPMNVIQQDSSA
The series can be described thus: Assay (II)b functional assay, rat calcitonin receptor (cAMP FlashPlate). Format: cell-based. As to conditions: Table 11, read-out: CTa receptor rat EC50. The text has this: Assay (II)b—Rat Calcitonin and Rat Amylin Receptor Assays
Activation of calcitonin and amylin (coexpression of calcitonin receptor and receptor activity modifying proteins (RAMP)) receptors lead to increased intracellular concentrations of cAMP. In order to quantify the cAMP levels in transiently transfected cells the Adenylyl Cyclase Activation FlashPlate® Assay from Perkin Elmer was used. The basic principle of the FlashPlate® Assay is a competition between radioactive and non-radioactive cAMP generated by the cells for a fixed number of binding sites.
Construction of Rat Calcitonin(a)- and Rat Amylin 3(a)-Receptor Cells.
BHK tk'ts 13 cells were transiently transfected with either rat calcitonin (a) receptor or amylin 3 (a) receptor (rat calcitonin(a) receptor+rat RAMP3) using FuGENE® 6 (Roche), according to the manufacturers recommendations.
24 hours after transient transfection the cells (rat calcitonin(a)- or rat amylin 3(a)-receptor cells) were added (100.000 cells/well) to the 96 well FlashPlates® with samples or standard in FlashPlate stimulation buffer with IBMX and incubated for 30 min. Detection mix was created according to manufacturers protocol and scintillation measured after 3 h of incubation on TopCounter™ (Packard).

Series [2] can be described thus: Assay (III) ThT fibrillation assay for physical stability. It is filed as physicochemical. The gist of the method: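 Freshly prepared, pH-adjusted formulations with 1 μM ThT incubated at 37 °C under 960 rpm orbital shaking (1 mm), fluorescence (ex 444, em 485 nm) read every 20 min. […] Peptide content before and after measured by reverse-phase HPLC against pramlintide standard.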

With `CC[C@H](C)[C@H](NC(=O)[C@@H]1CCCN1C(=O)CNC(=O)[C@H](Cc1ccccc1)NC(=O)[C@H](CC(N)=O)NC(=O)[C@H](CCCCNC(=O)COCCOCCNC(=O)COCCOCCNC(=O)CC[C@H](NC(=O)CCCCCCCCCCCCCCCCC(=O)O)C(=O)O)NC(=O)[C@H](CO)NC(=O)[C@H](CO)NC(=O)[C@H](Cc1c[nH]cn1)NC(=O)[C@H](Cc1c[nH]cn1)NC(=O)[C@H](CC(C)C)NC(=O)[C@H](Cc1ccccc1)NC(=O)[C@H](CCC(=O)O)NC(=O)[C@H](C)NC(=O)[C@H](CC(C)C)NC(=O)[C@H](CCCNC(=N)N)NC(=O)[C@H](CCC(N)=O)NC(=O)[C@@H](NC(=O)[C@H](C)NC(=O)[C@@H]1CSSC[C@H](NC(=O)[C@@H](N)CCCCN)C(=O)N[C@@H](CC(N)=O)C(=O)N[C@@H]([C@@H](C)O)C(=O)N[C@@H](C)C(=O)N[C@@H]([C@@H](C)O)C(=O)N1)[C@@H](C)O)C(=O)N[C@@H](CC(C)C)C(=O)N1CCC[C@H]1C(=O)N1CCC[C@H]1C(=O)N[C@H](C(=O)N[C@@H](CC(N)=O)C(=O)N[C@H](C(=O)NCC(=O)N[C@@H](CO)C(=O)N[C@@H](CCC(=O)O)C(=O)N[C@H](C(=O)N[C@@H](Cc1ccc(O)cc1)C(N)=O)[C@@H](C)O)C(C)C)[C@@H](C)O` [Example 74, N-epsilon21-[2-(2-{2-[2-(2-{2-[(S)-4-Carboxy-4-(17-carboxyheptadecanoylamino)butyrylamino]ethoxy}ethoxy)acetylamino]ethoxy}ethoxy)acetyl]-[Glu14,His17,Lys21,Glu35]-pramlintide] (H-KCNTATCATQRLAEFLHHSSK([AEEA-AEEA-γGlu-C18 diacid])NFGPILPPTNVGSETY-NH2; disulfide 2-7 (inferred); N-terminus and C-terminus assumed), the EC50 (commonly the concentration giving half of the maximal effect) in series [1] stood at 2.06 nM. Also, the “ThT pH 4.0 lag time (physical stability in fibrillogenesis assay)” value in series [2] (pH 4.0) is reported as >45 h. For the same compound, the “ThT pH 4.0 lag time” value in series [2] (pH 4.0, ThT fibrillation assay) is listed as >45 h.
